Assay results taken from patent US9913831B2, “Methods and compositions for treating nephrogenic diabetes insipidus” (UNIVERSITY OF UTAH RESEARCH FOUNDATION, priority 2011, dated 2018).

Columns and labels:
lithium-treated rats = test: Effect of clopidogrel on lithium-induced alterations in rats (natriuresis, urinary nitrates/nitrites, hematocrit, body and kidney weight); settings: 2 weeks
Protocol: (§1) Animal experiments: Male Sprague-Dawley rats were purchased from Charles River (Wilmington, Mass., USA), and Brattleboro mutant rats that lack AVP (HsdBlu:BRAT-Avp^di) were obtained from the Rat Resource & Research Center (RRRC), University of Missouri, Columbia, Mo., USA. Mice (B6D2 genetic background) were bred in-house. […] Lithium-added chow (40 mmol Li/kg chow) was custom prepared (MP Biomedicals, Aurora, Ohio, USA). Clopidogrel bisulfate was administered orally by powdering and dissolving Plavix® tablets (Bristol-Myers Squibb, New York, N.Y., USA) in drinking water. The concentration of the drug in the drinking water was adjusted daily based on the water consumption of the animals the previous day. The clopidogrel dose used in Sprague-Dawley rats (20 mg/kg bw/day) was the same as used by other investigators (de La Crux et al, 2003; Graciano et al, 2008). In mice, clopidogrel was administered at a dose of 80 mg/kg bw/day. When compared with the human clinical dose of Plavix®, and adjusted to the Km factor (ratio of body surface area to body weight) of the species (man vs. rat or mouse) (Reagan-Shaw et al, 2007), the doses used in rats or mice were 2.5- and 5-fold higher, respectively. […] A higher dose of clopidogrel (40 mg/kg bw/day) was used in Brattleboro rats to ensure an unequivocal outcome whether positive or negative. Twenty-four hour urine samples were collected by placing the animals in the appropriate metabolic cages designed for rats and mice. Blood and kidney tissues were collected at necropsy. Cortical, outer and inner medullary regions of the kidneys were dissected out and processed for laboratory assays.
(§2) Blood, urine and tissue analysis: Osmolalities of clear urine samples were measured by vapor pressure method (Wescor, Logan, Utah, USA). Microhematocrit was determined by centrifuging free-flowing blood collected in heparinized capillary tubes in a microhematocrit centrifuge (Clay Adams, Parsippany, N.J., USA). Urinary excretion of AVP was quantified by a commercial ELISA kit (Enzo Life Sciences, Farmingdale, N.Y., USA). Total nitrate/nitrite contents of urine samples were determined by a commercial kit (Cayman Chemical, Ann Arbor, Mich.).Na, Li and K levels in serum and/or urine were determined on EasyElectrolyte® (Medica Corp., Bedford, Mass., USA). Based on serum and urine analysis, electrolyte-free clearance [CH20(e)] was computed using the formula CH20(e)=V((1−UNa+UK)/PNa), where V=urine volume, UNa and UK are urine Na and K, and PNa is plasma Na, respectively (Schrier 2006). Lithium levels in inner medullary tissue homogenates were assayed by Inductively Coupled Plasma-Mass Spectrometry (ICPMS) by Exova (Santa Fe Springs, Calif., USA), and were normalized to their respective protein contents.
Statistical Analysis: All quantitative data are expressed as mean±standard error (SE). Comparisons among the means of multiple groups were made by one-way analysis of variance (ANOVA), followed by the assessment of statistical significance by Tukey-Kramer Multiple Comparison Test or Student-Newman-Keuls Multiple Comparison Test. Differences between the means of two groups were determined by unpaired t test or where applicable, by Mann-Whitney nonparametric test. P values less than 0.05 were considered significant. GraphPad Instat® (GraphPad Software, Inc., La Jolla, Calif.) was used for statistical analysis.

[1] = system: ADP-activated P2Y12 receptor
Brattleboro mutant rats = settings: Brattleboro rats lacking AVP, clopidogrel 40 mg/kg bw/day in drinking water 2 weeks
Protocol: Animal experiments: Male Sprague-Dawley rats were purchased from Charles River (Wilmington, Mass., USA), and Brattleboro mutant rats that lack AVP (HsdBlu:BRAT-Avp^di) were obtained from the Rat Resource & Research Center (RRRC), University of Missouri, Columbia, Mo., USA. Mice (B6D2 genetic background) were bred in-house. […] Lithium-added chow (40 mmol Li/kg chow) was custom prepared (MP Biomedicals, Aurora, Ohio, USA). Clopidogrel bisulfate was administered orally by powdering and dissolving Plavix® tablets (Bristol-Myers Squibb, New York, N.Y., USA) in drinking water. The concentration of the drug in the drinking water was adjusted daily based on the water consumption of the animals the previous day. […]
Blood, urine and tissue analysis: Osmolalities of clear urine samples were measured by vapor pressure method (Wescor, Logan, Utah, USA). Microhematocrit was determined by centrifuging free-flowing blood collected in heparinized capillary tubes in a microhematocrit centrifuge (Clay Adams, Parsippany, N.J., USA). Urinary excretion of AVP was quantified by a commercial ELISA kit (Enzo Life Sciences, Farmingdale, N.Y., USA). Total nitrate/nitrite contents of urine samples were determined by a commercial kit (Cayman Chemical, Ann Arbor, Mich.).Na, Li and K levels in serum and/or urine were determined on EasyElectrolyte® (Medica Corp., Bedford, Mass., USA). […]

[2] = system: lithium-induced polyuria in mice (B6D2 genetic background); settings: lithium diet + clopidogrel 80 mg/kg bw/day 14 days vs LI alone, P<0.05 or better
Protocol: (§3) Animal experiments: Male Sprague-Dawley rats were purchased from Charles River (Wilmington, Mass., USA), and Brattleboro mutant rats that lack AVP (HsdBlu:BRAT-Avpdi) were obtained from the Rat Resource & Research Center (RRRC), University of Missouri, Columbia, Mo., USA. Mice (B6D2 genetic background) were bred in-house. […] Lithium-added chow (40 mmol Li/kg chow) was custom prepared (MP Biomedicals, Aurora, Ohio, USA). Clopidogrel bisulfate was administered orally by powdering and dissolving Plavix® tablets (Bristol-Myers Squibb, New York, N.Y., USA) in drinking water. The concentration of the drug in the drinking water was adjusted daily based on the water consumption of the animals the previous day. The clopidogrel dose used in Sprague-Dawley rats (20 mg/kg bw/day) was the same as used by other investigators (de La Crux et al, 2003; Graciano et al, 2008). In mice, clopidogrel was administered at a dose of 80 mg/kg bw/day. When compared with the human clinical dose of Plavix®, and adjusted to the Km factor (ratio of body surface area to body weight) of the species (man vs. rat or mouse) (Reagan-Shaw et al, 2007), the doses used in rats or mice were 2.5- and 5-fold higher, respectively. […]
The effect of administration of clopidogrel on lithium-induced polyuria was determined in mice (B6D2 genetic background). […]

Sprague-Dawley rats = system: Sprague-Dawley rats
Protocol: as §3, with “bw/day.” for “bw/day. When compared with the human clinical dose of Plavix®, and adjusted to the Km factor (ratio of body surface area to body weight) of the species (man vs. rat or mouse) (Reagan-Shaw et al, 2007), the doses used in rats or mice were 2.5- and 5-fold higher, respectively.”
Microhematocrit was determined by centrifuging free-flowing blood collected in heparinized capillary tubes in a microhematocrit centrifuge (Clay Adams, Parsippany, N.J., USA). Urinary excretion of AVP was quantified by a commercial ELISA kit (Enzo Life Sciences, Farmingdale, N.Y., USA). […]

rats = settings: upto 4 weeks; cited from earlier work
[3] = system: lithium-induced polyuria in rats
Protocol: as §1, with “(HsdBlu:BRAT-Avpdi)” for “(HsdBlu:BRAT-Avp^di)”
as §2, with “Microhematocrit” for “Blood, urine and tissue analysis: Osmolalities of clear urine samples were measured by vapor pressure method (Wescor, Logan, Utah, USA). Microhematocrit”, “Total nitrate/nitrite contents of urine samples were determined by a commercial kit (Cayman Chemical, Ann Arbor, Mich.).Na, Li and K levels in serum and/or urine were determined on EasyElectrolyte® (Medica Corp., Bedford, Mass., USA).” left out

AQP2 protein = settings: mice, lithium diet + clopidogrel 80 mg/kg bw/day 14 days
Protocol: The effect of administration of clopidogrel on lithium-induced polyuria was determined in mice (B6D2 genetic background). Groups of mice were administered either a lithium-containing diet (40 mmol/kg chow; custom prepared by MP Biomedicals, Aurora, Ohio) or lithium-containing diet plus clopidogrel (80 mg per kg body weight per day in drinking water) for 14 days. Twenty-four urine samples were collected prior to the start of the treatment (day 0), on days 8 and 9, and days 13 and 14. The data plotted in the graphs represent the mean of the values obtained on the two consecutive days. Results are mean±SE; n=5 for LI alone group and n=6 for LI+CLPD group; ANOVA followed by Tukey Kramer Multiple Comparison Test.

AQP1 water channel = settings: normal rats, clopidogrel 20 mg/kg bw/day 13 days
Protocol: (§4) Tissue samples were prepared and immnoblotted for semi-quantitative determination of protein abundances of P2Y12 receptor, and β-actin by the methods described previously (Zhang et al, ibid, 2008, 2009, 2010). Whole tissue homogenates were prepared in the presence of protease inhibitors, and the concentrations of proteins in the homogenates were determined, and solubilized in Laemmli buffer. Then the solubilized proteins were size fractionated on 12% SDS-polyacrylamide gels. Quality of tissue sample preparation and equality of protein loading were verified by staining parallel-run loading gels with Coomassie-blue (Gelcode Blue, Pierce Endogen, Rockford, Ill.). The size fractionated proteins were electrotransferred to nitrocellulose membranes, and blocked with buffer containing non-fat milk. Differences in protein loading were corrected by normalizing the band densities of the target proteins to that of β-actin (polyclonal antibody from Biolegend, San Diego, Calif., USA). After washing, the blocked membranes were incubated with rabbit polyclonal antibodies to either P2Y12 receptor (AnaSpec, Fremont, Calif.) or aquaporin-2 (AQP2; Zhang et al, ibid, 2008) or AQP1 (commercial source) or β-actin (Biolegend, San Diego, Calif.). Non-specific binding was prevented by incubation of the membranes with goat serum. Generation and characterization of AQP2 antibody (GN-762) was described previously (Kishore et al, 2000; Zhang et al, 2008). When peptide block was tested, prior to its use on the membranes the P2Y12 receptor antibody was pre-adsorbed by incubation with the blocking peptide as per the instructions of the supplier (AnaSpec, Fremont, Calif.). After washing off the primary antibodies, the nitrocellulose membranes were incubated with a peroxidase-conjugated secondary antibody to rabbit IgG (Dako North America, Carpinteria, Calif.). Chemiluminescence reaction was used to detect sites of antigen-antibody reactions (SuperSignal Substrate; Pierce Endogen, Rockford, Ill.), and captured on an X-ray film. Images were digitized and band densities were quantified by using Un-San-It software (Silk Scientific, Orem, Utah). The band densities of AQP2 were normalized by the band densities of β-actin. Mean values of relative band densities thus obtained for P2Y12 receptor were expressed as percent of the mean values obtained in the control group of animals.
(§5) Clopidogrel bisulfate was given orally to a group of Sprague-Dawley rats (n=4) for 13 days by dissolving powdered Plavix® tablets (75 mg base; Bristol-Myers Squibb/Sanofi, Bridgeport, N.J.) in drinking water, so that the rats consumed at least 20 mg of clopidogrel bisulfate base per kg body weight per day. The concentration of the drug in the drinking water was adjusted daily based on the water consumption of the rats the previous day. Another group of rats (n=4) was given plain water and this group served as controls.

[4] = system: AQP2 water channel protein; settings: normal rats, clopidogrel 20 mg/kg bw/day in drinking water 13 days, vs control
Protocol: as §4, §5

P2Y12 receptor = settings: normal rats, clopidogrel 20 mg/kg bw/day 13 days
Protocol: as §4, §5

[5] = rats, lithium diet with clopidogrel vs lithium alone, ICPMS
Protocol: as §2, with “Microhematocrit” for “Blood, urine and tissue analysis: Osmolalities of clear urine samples were measured by vapor pressure method (Wescor, Logan, Utah, USA). Microhematocrit”, “Total nitrate/nitrite contents of urine samples were determined by a commercial kit (Cayman Chemical, Ann Arbor, Mich.).Na, Li and K levels in serum and/or urine were determined on EasyElectrolyte® (Medica Corp., Bedford, Mass., USA).” left out

[6] = rats, lithium treatment alone (40 mmol Li/kg chow)
[7] = rats, lithium + clopidogrel (40 mg/kg bw/day per FIG. 11 legend)
[8] = rats, lithium + clopidogrel (40 mg/kg bw/day per FIG. 12 legend)

Compound: [Li] [Lithium, lithium]
- kidney weight as a percent of body weight (lithium-treated rats; lithium-treated rats with or without added clopidogrel): did not change
- gain in body weight (lithium-treated rats; [6]): significantly low
- terminal hematocrit (lithium-treated rats; [6]): significant elevation

Compound: COC(=O)[C@H](c1ccccc1Cl)N1CCc2sccc2C1 [clopidogrel]
- development of AVP-resistant polyuria ([1]; lithium-treated rodents): blocked the development
- AVP in the urine (surrogate for plasma AVP levels) ([1]; rodents): increased
- aquaporin-2 (AQP2) water channel protein in the kidney ([1]; rodents): increased
- urinary concentration ([1]; rodents): significantly increased
- urinary concentrating ability (Brattleboro mutant rats): did not increase
- lithium-induced increase in urinary NO3/NO2 (total nitrates/nitrites excretion) (lithium-treated rats; [7]): significantly ameliorated
- lithium-induced natriuresis (urinary sodium excretion) (lithium-treated rats; [7]): modest effect
- lithium-induced increase in terminal hematocrit (lithium-treated rats; [8]): reversed
- low gain in body weight due to lithium-treatment (lithium-treated rats; [8]): did not ameliorate
- water intake [2]: significant decrease
- urinary excretion of AVP (Sprague-Dawley rats; clopidogrel administration alone, rats): significantly increased
- urinary concentration (Sprague-Dawley rats; normal rats, clopidogrel 20 mg/kg bw/day in drinking water 13 days): Increased
- doses free from toxicity (rats): ≤ 165 mg/kg bw/day
- solute-free water absorption (negative value) ([3]; clopidogrel administered alone): modestly increased
- lithium-induced urinary AVP levels ([3]; co-administration of clopidogrel with lithium): augmented
- lithium-induced polyuria ([3]; lithium diet 40 mmol/kg chow + clopidogrel 20 mg/kg/day, 13 days): significantly ameliorated
- lithium-induced solute-free water excretion (electrolyte-free water clearance, positive value) ([3]; lithium diet + clopidogrel 20 mg/kg/day, 13 days): effectively reversed
- lithium-induced decrease in AQP2 protein abundance in the renal medulla (AQP2 protein): significantly prevented
- protein abundance of AQP1 water channel in the kidney (AQP1 water channel): did not appear to alter
- increase of AQP2 protein abundance in the inner medulla ([4]; P<0.002): 1.9 fold
- increase of AQP2 protein abundance in the cortex ([4]; P<0.02): 2.7 fold
- increase of AQP2 protein abundance in the outer medulla ([4]; P=0.24): not in the outer medulla
- protein abundance of P2Y12 receptor in the kidney (P2Y12 receptor): did not appear to alter
- accumulation of lithium in the inner medulla [5]: no effect
